Experimental data taken from the supplement of paper PMC10307832.

Key:
Assay in all cases: relative viability (nuclei count vs DMSO), 5 days (fraction); higher = more cells survive
NPK76-II-72-1 + OSI-027 = compound: CC1CC(=O)N(C2=CN=C(N=C2N1C3CCCC3)NC4=C(C=C(C=C4)C(=O)NC5CCN(CC5)C)OC)C [NPK76-II-72-1] + COc1cccc2cc(-c3nc([C@H]4CC[C@H](C(=O)O)CC4)n4ncnc(N)c34)[nH]c12 [OSI-027] (partner 0.5 µM)
Method in brief: (§1)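 Five library-drug doses in √10 steps were combined with a fixed anchor-drug dose, or a single drug was given alone, by pin tool to lung cancer cell lines in 1536-well plates the day after seeding. Nuclei were stained and counted after 5 days. Relative viability is the nuclei count in treated wells over that in vehicle wells, taken as the median of duplicate plates.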

[1] = compound: CC1CC(=O)N(C2=CN=C(N=C2N1C3CCCC3)NC4=C(C=C(C=C4)C(=O)NC5CCN(CC5)C)OC)C [NPK76-II-72-1] + O=C(CCCCCCC(=O)Nc1ccccc1)NO [Vorinostat] (partner 1 µM)
Method in brief: as §1

BI-2536 + Navitoclax = compound: CC[C@@H]1C(=O)N(C)c2cnc(Nc3ccc(C(=O)NC4CCN(C)CC4)cc3OC)nc2N1C1CCCC1 [BI-2536] + CC1(C)CCC(c2ccc(Cl)cc2)=C(CN2CCN(c3ccc(C(=O)NS(=O)(=O)c4ccc(N[C@H](CCN5CCOCC5)CSc5ccccc5)c(S(=O)(=O)C(F)(F)F)c4)cc3)CC2)C1 [Navitoclax] (partner 0.5 µM)
Method in brief: as §1

BI-2536 + Linsitinib = compound: CC[C@@H]1C(=O)N(C)c2cnc(Nc3ccc(C(=O)NC4CCN(C)CC4)cc3OC)nc2N1C1CCCC1 [BI-2536] + C[C@]1(O)C[C@@H](c2nc(-c3ccc4ccc(-c5ccccc5)nc4c3)c3c(N)nccn32)C1 [Linsitinib] (partner 1 µM)
Method in brief: as §1

Row | Cell Line | relative viability (NPK76-II-72-1 + OSI-027; first compound 0.01 µM) | relative viability (NPK76-II-72-1 + OSI-027; first compound 0.03162 µM) | relative viability (NPK76-II-72-1 + OSI-027; first compound 0.1 µM) | relative viability (NPK76-II-72-1 + OSI-027; first compound 0.3162 µM) | relative viability (NPK76-II-72-1 + OSI-027; first compound 1 µM) | relative viability ([1]; first compound 0.01 µM) | relative viability ([1]; first compound 0.03162 µM) | relative viability ([1]; first compound 0.1 µM) | relative viability ([1]; first compound 0.3162 µM) | relative viability ([1]; first compound 1 µM) | relative viability (BI-2536 + Navitoclax; first compound 0.01 µM) | relative viability (BI-2536 + Navitoclax; first compound 0.03162 µM) | relative viability (BI-2536 + Navitoclax; first compound 0.1 µM) | relative viability (BI-2536 + Navitoclax; first compound 0.3162 µM) | relative viability (BI-2536 + Navitoclax; first compound 1 µM) | relative viability (BI-2536 + Linsitinib; first compound 0.01 µM) | relative viability (BI-2536 + Linsitinib; first compound 0.03162 µM) | relative viability (BI-2536 + Linsitinib; first compound 0.1 µM) | relative viability (BI-2536 + Linsitinib; first compound 0.3162 µM) | relative viability (BI-2536 + Linsitinib; first compound 1 µM)
1 | NCI-H460 | 0.706 | 0.79 | 0.75 | 0.628 | 0.775 | 0.684 | 0.799 | 0.703 | 0.748 | 0.636 | 1.19 | 1.05 | 0.0795 | 0.0095 | 0.0103 | 0.844 | 0.755 | 0.28 | 0.0093 | 0.0128
2 | NCI-H520 | 0.358 | 0.265 | 0.238 | 0.257 | 0.305 | 0.706 | 0.84 | 0.698 | 0.741 | 0.748 | 1.02 | 1.03 | 0.366 | 0.222 | 0.2 | 0.984 | 0.852 | 0.792 | 0.153 | 0.171
3 | NCI-H596 | 0.873 | 0.666 | 0.748 | 0.691 | 0.67 | 0.718 | 0.615 | 0.696 | 0.631 | 0.723 | 0.997 | 1.21 | 0.978 | 0.19 | 0.184 | 1.09 | 1.1 | 1.11 | 0.363 | 0.39
4 | NCI-H647 | 0.618 | 0.626 | 0.526 | 0.578 | 0.627 | 0.575 | 0.568 | 0.4 | 0.668 | 0.725 | 1.05 | 0.883 | 0.378 | 0.0407 | 0.0778 | 1.15 | 1.15 | 1.11 | 0.108 | 0.0822
5 | NCI-H727 | 0.496 | 0.637 | 0.602 | 0.564 | 0.668 | 1.23 | 1.33 | 1.2 | 1.22 | 1.29 | 0.356 | 0.552 | 0.255 | 0.138 | 0.176 | 0.416 | 0.268 | 0.281 | 0.282 | 0.211
6 | NCI-H838 | 0.323 | 0.363 | 0.385 | 0.395 | 0.442 | 0.69 | 0.73 | 0.717 | 0.684 | 0.672 | 1.11 | 1.2 | 0.634 | 0.164 | 0.146 | 1.05 | 0.961 | 0.96 | 0.136 | 0.126
7 | NCI-H1355 | 0.332 | 0.421 | 0.397 | 0.384 | 0.489 | 0.597 | 0.613 | 0.606 | 0.56 | 0.715 | 0.885 | 1.08 | 0.91 | 0.159 | 0.186 | 0.877 | 0.889 | 0.856 | 0.227 | 0.178
8 | NCI-H1395 | 0.633 | 0.617 | 0.677 | 0.62 | 0.695 | 0.711 | 0.67 | 0.642 | 0.721 | 0.84 | 1.01 | 0.635 | 0.732 | 0.42 | 0.467 | 0.928 | 0.785 | 0.633 | 0.544 | 0.474
